From PubChem BioAssay (NCI)
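Briefly, cells in 96-well plates were exposed to five compound concentrations for 48 h, and endpoints were estimated by linear interpolation. TGI denotes the concentration required for complete inhibition of growth.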

Assays:
Assay in all cases: growth of human tumour cells (NCI), 48 h
RXF 393 renal = system: RXF 393 renal
NCI-H23 lung = system: NCI-H23 lung
HCC-2998 colon = system: HCC-2998 colon
K-562 leukemia = system: K-562 leukemia
A549 NSCLC = system: A549 NSCLC
MOLT-4 leukemia = system: MOLT-4 leukemia
NCI/ADR-RES ovarian = system: NCI/ADR-RES ovarian
TK-10 renal = system: TK-10 renal
HOP-62 NSCLC = system: HOP-62 NSCLC
HT29 colon = system: HT29 colon
MDA-MB-231 breast = system: MDA-MB-231 breast
SF-268 CNS = system: SF-268 CNS
UACC-62 melanoma = system: UACC-62 melanoma
SN12C renal = system: SN12C renal
SNB-75 CNS = system: SNB-75 CNS
BT-549 breast = system: BT-549 breast
SK-OV-3 ovarian = system: SK-OV-3 ovarian
EKVX NSCLC = system: EKVX NSCLC
LOX IMVI melanoma = system: LOX IMVI melanoma
HL-60(TB) leukemia = system: HL-60(TB) leukemia
PC-3 prostate = system: PC-3 prostate
786-0 renal = system: 786-0 renal
ACHN renal = system: ACHN renal
HCT-116 colon = system: HCT-116 colon
HS 578T breast = system: HS 578T breast
M14 melanoma = system: M14 melanoma
RPMI-8226 leukemia = system: RPMI-8226 leukemia
OVCAR-8 ovarian = system: OVCAR-8 ovarian
DU-145 prostate = system: DU-145 prostate
OVCAR-3 ovarian = system: OVCAR-3 ovarian
SF-539 CNS = system: SF-539 CNS
SK-MEL-28 melanoma = system: SK-MEL-28 melanoma
MDA-MB-435 = system: MDA-MB-435
A498 renal = system: A498 renal
NCI-H460 lung = system: NCI-H460 lung
T-47D breast = system: T-47D breast
OVCAR-5 ovarian = system: OVCAR-5 ovarian
MCF7 breast = system: MCF7 breast
SNB-19 CNS = system: SNB-19 CNS
HOP-92 NSCLC = system: HOP-92 NSCLC
CCRF-CEM leukemia = system: CCRF-CEM leukemia
SW-620 colon = system: SW-620 colon
MDA-N = system: MDA-N
HCT-15 colon = system: HCT-15 colon
KM12 colon = system: KM12 colon
MALME-3M melanoma = system: MALME-3M melanoma
COLO 205 colon = system: COLO 205 colon
IGROV1 ovarian = system: IGROV1 ovarian
UO-31 renal = system: UO-31 renal
U251 CNS = system: U251 CNS
CAKI-1 renal = system: CAKI-1 renal
SF-295 CNS = system: SF-295 CNS
SK-MEL-2 melanoma = system: SK-MEL-2 melanoma
NCI-H226 lung = system: NCI-H226 lung
SK-MEL-5 melanoma = system: SK-MEL-5 melanoma
OVCAR-4 ovarian = system: OVCAR-4 ovarian
NCI-H522 lung = system: NCI-H522 lung

## CC1=NN(C(=O)CC(=O)NC(=O)/C=C\c2ccccc2)C(=O)C1N=Nc1ccc([N+](=O)[O-])cc1 (stereo not drawn)
RXF 393 renal
  TGI: > 100 µM
NCI-H23 lung
  TGI: > 100 µM
HCC-2998 colon
  TGI: > 100 µM
K-562 leukemia
  TGI: > 100 µM
A549 NSCLC
  TGI: > 100 µM
MOLT-4 leukemia
  TGI: > 100 µM
NCI/ADR-RES ovarian
  TGI: > 100 µM
TK-10 renal
  TGI: > 100 µM
HOP-62 NSCLC
  TGI: > 100 µM
HT29 colon
  TGI: > 100 µM
MDA-MB-231 breast
  TGI: > 100 µM
SF-268 CNS
  TGI: > 100 µM
UACC-62 melanoma
  TGI: > 100 µM
SN12C renal
  TGI: > 100 µM
SNB-75 CNS
  TGI: > 100 µM
BT-549 breast
  TGI: 83.5 µM
SK-OV-3 ovarian
  TGI: > 100 µM
EKVX NSCLC
  TGI: > 100 µM
LOX IMVI melanoma
  TGI: > 100 µM
HL-60(TB) leukemia
  TGI: > 100 µM
PC-3 prostate
  TGI: > 100 µM
786-0 renal
  TGI: > 100 µM
ACHN renal
  TGI: > 100 µM
HCT-116 colon
  TGI: > 100 µM
HS 578T breast
  TGI: > 100 µM
M14 melanoma
  TGI: > 100 µM
RPMI-8226 leukemia
  TGI: > 100 µM
OVCAR-8 ovarian
  TGI: > 100 µM
DU-145 prostate
  TGI: > 100 µM
OVCAR-3 ovarian
  TGI: > 100 µM
SF-539 CNS
  TGI: > 100 µM
SK-MEL-28 melanoma
  TGI: > 100 µM
MDA-MB-435
  TGI: > 100 µM
A498 renal
  TGI: > 100 µM
NCI-H460 lung
  TGI: > 100 µM
T-47D breast
  TGI: > 100 µM
OVCAR-5 ovarian
  TGI: > 100 µM
MCF7 breast
  TGI: > 100 µM
SNB-19 CNS
  TGI: > 100 µM
HOP-92 NSCLC
  TGI: 97.4 µM
CCRF-CEM leukemia
  TGI: > 100 µM
SW-620 colon
  TGI: > 100 µM
MDA-N
  TGI: > 100 µM
HCT-15 colon
  TGI: > 100 µM
KM12 colon
  TGI: > 100 µM
MALME-3M melanoma
  TGI: > 100 µM
COLO 205 colon
  TGI: > 100 µM
IGROV1 ovarian
  TGI: > 100 µM
UO-31 renal
  TGI: > 100 µM
U251 CNS
  TGI: > 100 µM
CAKI-1 renal
  TGI: > 100 µM
SF-295 CNS
  TGI: > 100 µM

## CC(=Nc1cccc(Cl)c1)c1ccncc1
RXF 393 renal
  TGI: > 100 µM
NCI-H23 lung
  TGI: > 100 µM
HCC-2998 colon
  TGI: > 100 µM
SK-MEL-2 melanoma
  TGI: > 100 µM
NCI-H226 lung
  TGI: > 100 µM
K-562 leukemia
  TGI: > 100 µM
A549 NSCLC
  TGI: > 100 µM
MOLT-4 leukemia
  TGI: > 100 µM
NCI/ADR-RES ovarian
  TGI: > 100 µM
TK-10 renal
  TGI: > 100 µM
HOP-62 NSCLC
  TGI: > 100 µM
HT29 colon
  TGI: > 100 µM
SK-MEL-5 melanoma
  TGI: > 100 µM
OVCAR-4 ovarian
  TGI: > 100 µM
MDA-MB-231 breast
  TGI: > 100 µM
SF-268 CNS
  TGI: > 100 µM
UACC-62 melanoma
  TGI: > 100 µM
NCI-H522 lung
  TGI: > 100 µM
SN12C renal
  TGI: > 100 µM
SNB-75 CNS
  TGI: > 100 µM
BT-549 breast
  TGI: > 100 µM
SK-OV-3 ovarian
  TGI: > 100 µM
EKVX NSCLC
  TGI: > 100 µM
LOX IMVI melanoma
  TGI: > 100 µM
PC-3 prostate
  TGI: > 100 µM
786-0 renal
  TGI: > 100 µM
ACHN renal
  TGI: > 100 µM
HCT-116 colon
  TGI: > 100 µM
HS 578T breast
  TGI: > 100 µM
M14 melanoma
  TGI: > 100 µM
RPMI-8226 leukemia
  TGI: > 100 µM
OVCAR-8 ovarian
  TGI: > 100 µM
DU-145 prostate
  TGI: > 100 µM
OVCAR-3 ovarian
  TGI: > 100 µM
SF-539 CNS
  TGI: > 100 µM
SK-MEL-28 melanoma
  TGI: > 100 µM
MDA-MB-435
  TGI: > 100 µM
A498 renal
  TGI: > 100 µM
NCI-H460 lung
  TGI: > 100 µM
T-47D breast
  TGI: > 100 µM
OVCAR-5 ovarian
  TGI: > 100 µM
MCF7 breast
  TGI: > 100 µM
SNB-19 CNS
  TGI: > 100 µM
HOP-92 NSCLC
  TGI: > 100 µM
CCRF-CEM leukemia
  TGI: > 100 µM
SW-620 colon
  TGI: > 100 µM
MDA-N
  TGI: > 100 µM
HCT-15 colon
  TGI: > 100 µM
KM12 colon
  TGI: > 100 µM
MALME-3M melanoma
  TGI: > 100 µM
COLO 205 colon
  TGI: > 100 µM
IGROV1 ovarian
  TGI: > 100 µM
UO-31 renal
  TGI: > 100 µM
U251 CNS
  TGI: > 100 µM
CAKI-1 renal
  TGI: > 100 µM
SF-295 CNS
  TGI: > 100 µM
